From paper PMC11625940, “An Improved Test Method for Assaying the Inhibition of Bioflavonoids on Xanthine Oxidase Activity in vitro” (ChemistryOpen, 2024)

Key:
Xanthine oxidase (XOD) [1] = molecular target: T1, Xanthine oxidase (XOD); assay: UV assay of uric acid formation at […] nm, test method A (inhibitor preincubated with enzyme, started by xanthine); format: biochemical; settings: xanthine substrate, sodium pyrophosphate buffer pH 7.5, 37 °C, other methods (B; C, inhibitor added to the running reaction with superoxide) also printed in the row, read-out: IC50 ^[a]/μmol L^-1
T1 construct: gene XDH; described in the introduction as a 290 kDa homodimer of mammals; the high specific activity could also fit a microbial enzyme

Xanthine oxidase (XOD) [2] = molecular target: T1, Xanthine oxidase (XOD); assay: UV assay of uric acid formation at […] nm, test method C (inhibitor added to running reaction after […] min, superoxide present); format: biochemical; settings: xanthine substrate, sodium pyrophosphate buffer pH 7.5, 37 °C, unreliable: compound may be oxidised to myricetin by superoxide, no IC50 reached in test methods A and B

IC50 (Xanthine oxidase (XOD) [1]) | IC50 ^[c]/μmol L^-1 (Xanthine oxidase (XOD) [2]) | Compound
4.34 µM | – | O=c1cc(-c2ccc(O)c(O)c2)oc2cc(O)cc(O)c12 [Luteolin]
– | 20.96 µM | O=C1c2c(O)cc(O)cc2O[C@H](c2cc(O)c(O)c(O)c2)[C@H]1O [Dihydromyricetin]
5 µM | – | O=c1c(O)c(-c2cc(O)c(O)c(O)c2)oc2cc(O)cc(O)c12 [Myricetin]
